Reference: ChEMBL document CHEMBL5465560, “Selectivity Literature for EUbOPEN Chemogenomic Library” (2024)

Assays:
[1] = target: T1, Dual specificity mitogen-activated protein kinase kinase 7 (Homo sapiens) (UniProt O14733); assay: Selectivity interaction (Kinase panel (KiNativ target engagement assay in Jurkat cells)) EUB0001635a MAP2K7; type: cell-based; details: Selectivity number of off-targets 0.0, Selectivity number of targets 233.0, Source Knowledge https://www.sciencedirect.com/science/article/pii/S2451945619300674?via%3Dihub, at 1 µM
T1 sequence (whole entry): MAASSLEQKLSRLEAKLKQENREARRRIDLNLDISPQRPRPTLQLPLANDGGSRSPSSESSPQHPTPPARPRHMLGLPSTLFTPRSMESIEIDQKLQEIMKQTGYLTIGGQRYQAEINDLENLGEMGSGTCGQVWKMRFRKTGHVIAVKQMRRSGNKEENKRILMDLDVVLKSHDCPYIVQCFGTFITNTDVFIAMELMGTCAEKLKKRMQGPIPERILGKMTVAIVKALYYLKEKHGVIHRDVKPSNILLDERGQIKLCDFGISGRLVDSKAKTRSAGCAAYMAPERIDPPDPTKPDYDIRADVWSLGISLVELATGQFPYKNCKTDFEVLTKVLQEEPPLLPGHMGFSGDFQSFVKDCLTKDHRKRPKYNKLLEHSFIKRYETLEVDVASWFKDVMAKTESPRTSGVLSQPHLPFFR

[2] = target: Cyclin-dependent kinase 17 (Homo sapiens) (UniProt Q00537); assay: Selectivity interaction (KinomeScan (DiscoverX)) EUB0000045b CDK17
[3] = target: Serine/threonine-protein kinase pim-2 (Homo sapiens, UniProt Q9P1W9); assay: Selectivity interaction (KinomeScan (DiscoverX)) EUB0000695a PIM2; details: at 100 nM
[4] = target: T2, Serine/threonine-protein kinase TNNI3K (Homo sapiens) (UniProt Q59H18); assay: Selectivity interaction (KinomeScan (DiscoverX)) EUB0000666a TNNI3K; details: at 10 µM
T2 sequence (whole entry): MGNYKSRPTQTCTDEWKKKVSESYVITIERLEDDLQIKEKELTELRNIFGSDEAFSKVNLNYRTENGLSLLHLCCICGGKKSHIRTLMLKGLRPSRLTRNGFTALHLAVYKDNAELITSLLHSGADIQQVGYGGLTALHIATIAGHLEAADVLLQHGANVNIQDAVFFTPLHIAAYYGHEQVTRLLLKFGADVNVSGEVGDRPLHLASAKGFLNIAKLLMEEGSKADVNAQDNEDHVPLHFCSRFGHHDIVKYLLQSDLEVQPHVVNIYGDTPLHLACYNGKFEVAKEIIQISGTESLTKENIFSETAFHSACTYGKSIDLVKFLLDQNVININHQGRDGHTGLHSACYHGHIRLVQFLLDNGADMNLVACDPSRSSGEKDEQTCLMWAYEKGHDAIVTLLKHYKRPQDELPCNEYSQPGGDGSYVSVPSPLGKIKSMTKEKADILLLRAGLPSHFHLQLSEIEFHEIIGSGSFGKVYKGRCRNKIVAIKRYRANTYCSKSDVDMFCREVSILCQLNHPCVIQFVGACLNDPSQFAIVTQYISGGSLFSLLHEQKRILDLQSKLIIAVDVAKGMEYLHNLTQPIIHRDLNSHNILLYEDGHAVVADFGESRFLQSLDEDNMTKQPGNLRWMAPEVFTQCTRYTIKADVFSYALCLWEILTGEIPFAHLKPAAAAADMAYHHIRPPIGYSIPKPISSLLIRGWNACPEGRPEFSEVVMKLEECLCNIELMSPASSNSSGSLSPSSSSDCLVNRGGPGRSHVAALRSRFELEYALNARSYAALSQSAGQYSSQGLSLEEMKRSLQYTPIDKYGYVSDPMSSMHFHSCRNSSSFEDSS

[5] = target: Calcium/calmodulin-dependent protein kinase kinase 1 (Homo sapiens) (UniProt Q8N5S9); assay: Selectivity interaction (KinomeScan (DiscoverX)) EUB0000666a CAMKK1; details: at 10 µM
[6] = tested on: Mast/stem cell growth factor receptor Kit (Homo sapiens), P10721 [L576P]; details: at 10 µM
[7] = target: Gamma-aminobutyric acid type B receptor subunit 1 (Homo sapiens) (UniProt Q9UBS5); assay: Selectivity interaction (Eurofins CEREP Diversity Profile (receptors and ion channels)) EUB0000279b GABBR1; details: at 10 µM
[8] = target: Mitogen-activated protein kinase kinase kinase kinase 1 (Homo sapiens) (UniProt Q92918); assay: Selectivity interaction (KinomeScan (DiscoverX)) EUB0001049a MAP4K1; details: at 1 µM
[9] = target: Casein kinase II subunit alpha (Homo sapiens, UniProt P68400); assay: Selectivity interaction (ProQinase) EUB0000171b CSNK2A1
[10] = target: Homeodomain-interacting protein kinase 2 (Homo sapiens, UniProt Q9H2X6); assay: Selectivity interaction (ProQinase) EUB0000171b HIPK2
[11] = target: Mitogen-activated protein kinase 7 (Homo sapiens) (UniProt Q13164); assay: Selectivity interaction (KinomeScan (DiscoverX)) EUB0000618a MAPK7; details: at 10 µM
[12] = target: T3, Cyclin-dependent kinase 11A (Homo sapiens) (UniProt Q9UQ88); details: at 10 µM
T3 sequence (whole entry): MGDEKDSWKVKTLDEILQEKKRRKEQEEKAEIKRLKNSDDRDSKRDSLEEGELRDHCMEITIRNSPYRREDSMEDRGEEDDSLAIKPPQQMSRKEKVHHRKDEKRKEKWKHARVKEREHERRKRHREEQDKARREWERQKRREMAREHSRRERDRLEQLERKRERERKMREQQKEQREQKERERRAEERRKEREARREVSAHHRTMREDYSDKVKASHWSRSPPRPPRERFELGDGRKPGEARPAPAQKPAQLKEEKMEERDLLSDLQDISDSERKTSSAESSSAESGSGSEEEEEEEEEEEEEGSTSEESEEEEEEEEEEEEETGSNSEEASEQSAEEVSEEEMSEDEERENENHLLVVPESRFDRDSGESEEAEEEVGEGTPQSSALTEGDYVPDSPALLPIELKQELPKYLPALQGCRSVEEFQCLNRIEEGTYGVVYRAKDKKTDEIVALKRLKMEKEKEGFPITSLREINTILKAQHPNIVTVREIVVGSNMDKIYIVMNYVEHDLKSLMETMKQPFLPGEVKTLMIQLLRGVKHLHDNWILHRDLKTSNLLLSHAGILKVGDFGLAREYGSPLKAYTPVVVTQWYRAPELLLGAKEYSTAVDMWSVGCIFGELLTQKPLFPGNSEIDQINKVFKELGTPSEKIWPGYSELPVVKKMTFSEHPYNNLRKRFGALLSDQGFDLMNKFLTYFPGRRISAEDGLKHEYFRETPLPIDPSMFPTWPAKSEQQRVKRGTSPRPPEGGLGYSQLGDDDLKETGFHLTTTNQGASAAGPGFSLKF

[13] = target: Fibroblast growth factor receptor 2 (Homo sapiens) (UniProt P21802); assay: Selectivity interaction (Ambit KINOMEscan and KiNATiv profiling in Jurkat cells) EUB0000090b FGFR2; type: cell-based; details: at 1 µM
Chain of Fibroblast growth factor receptor 2 (Homo sapiens) (P21802 22-821 limits assumed): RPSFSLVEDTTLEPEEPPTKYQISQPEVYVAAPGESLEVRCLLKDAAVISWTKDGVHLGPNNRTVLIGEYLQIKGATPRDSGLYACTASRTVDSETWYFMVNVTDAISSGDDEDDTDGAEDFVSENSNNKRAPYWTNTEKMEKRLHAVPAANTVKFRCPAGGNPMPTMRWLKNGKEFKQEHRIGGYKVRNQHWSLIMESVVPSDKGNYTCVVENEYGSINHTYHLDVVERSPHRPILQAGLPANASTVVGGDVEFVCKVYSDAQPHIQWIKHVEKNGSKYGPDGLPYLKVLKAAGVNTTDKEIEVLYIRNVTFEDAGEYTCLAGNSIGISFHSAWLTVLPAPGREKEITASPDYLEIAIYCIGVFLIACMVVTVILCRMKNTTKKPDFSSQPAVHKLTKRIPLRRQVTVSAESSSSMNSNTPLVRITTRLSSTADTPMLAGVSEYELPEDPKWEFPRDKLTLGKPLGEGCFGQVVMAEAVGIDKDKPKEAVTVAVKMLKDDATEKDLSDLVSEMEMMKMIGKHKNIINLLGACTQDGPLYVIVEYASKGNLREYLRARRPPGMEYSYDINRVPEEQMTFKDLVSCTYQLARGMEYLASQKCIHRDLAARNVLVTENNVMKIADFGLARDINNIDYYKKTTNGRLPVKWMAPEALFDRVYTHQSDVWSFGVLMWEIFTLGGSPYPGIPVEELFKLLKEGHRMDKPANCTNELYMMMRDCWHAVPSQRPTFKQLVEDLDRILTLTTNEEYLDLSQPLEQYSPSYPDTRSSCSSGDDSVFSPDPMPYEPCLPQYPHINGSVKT

Chain of Casein kinase II subunit alpha (P68400 whole entry, looked up): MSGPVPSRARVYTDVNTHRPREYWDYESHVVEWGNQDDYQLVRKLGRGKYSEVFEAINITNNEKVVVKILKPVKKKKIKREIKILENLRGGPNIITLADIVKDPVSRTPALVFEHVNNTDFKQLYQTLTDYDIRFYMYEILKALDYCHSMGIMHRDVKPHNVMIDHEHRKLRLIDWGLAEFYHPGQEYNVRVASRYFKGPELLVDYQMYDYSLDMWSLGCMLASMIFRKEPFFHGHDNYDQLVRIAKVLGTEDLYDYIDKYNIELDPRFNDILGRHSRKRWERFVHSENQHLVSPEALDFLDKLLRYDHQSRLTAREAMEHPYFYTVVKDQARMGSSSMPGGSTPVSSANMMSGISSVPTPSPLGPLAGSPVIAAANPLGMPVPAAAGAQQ
Chain of Cyclin-dependent kinase 17 (Homo sapiens) (Q00537 whole entry, looked up): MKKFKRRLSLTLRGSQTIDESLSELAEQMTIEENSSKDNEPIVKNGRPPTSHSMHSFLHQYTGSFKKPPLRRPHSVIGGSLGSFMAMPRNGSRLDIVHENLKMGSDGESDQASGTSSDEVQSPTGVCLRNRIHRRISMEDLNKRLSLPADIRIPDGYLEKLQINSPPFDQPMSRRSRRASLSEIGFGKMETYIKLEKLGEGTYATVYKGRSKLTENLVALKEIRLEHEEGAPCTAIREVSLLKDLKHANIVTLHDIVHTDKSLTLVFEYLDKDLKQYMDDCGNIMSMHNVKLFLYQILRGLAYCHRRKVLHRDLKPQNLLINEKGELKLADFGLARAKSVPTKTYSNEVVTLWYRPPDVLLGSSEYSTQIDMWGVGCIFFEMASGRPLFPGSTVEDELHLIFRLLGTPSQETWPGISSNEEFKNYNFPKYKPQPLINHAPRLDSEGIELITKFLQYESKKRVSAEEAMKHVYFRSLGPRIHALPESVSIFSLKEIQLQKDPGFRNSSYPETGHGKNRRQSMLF
Chain of Homeodomain-interacting protein kinase 2 (Q9H2X6 whole entry, looked up): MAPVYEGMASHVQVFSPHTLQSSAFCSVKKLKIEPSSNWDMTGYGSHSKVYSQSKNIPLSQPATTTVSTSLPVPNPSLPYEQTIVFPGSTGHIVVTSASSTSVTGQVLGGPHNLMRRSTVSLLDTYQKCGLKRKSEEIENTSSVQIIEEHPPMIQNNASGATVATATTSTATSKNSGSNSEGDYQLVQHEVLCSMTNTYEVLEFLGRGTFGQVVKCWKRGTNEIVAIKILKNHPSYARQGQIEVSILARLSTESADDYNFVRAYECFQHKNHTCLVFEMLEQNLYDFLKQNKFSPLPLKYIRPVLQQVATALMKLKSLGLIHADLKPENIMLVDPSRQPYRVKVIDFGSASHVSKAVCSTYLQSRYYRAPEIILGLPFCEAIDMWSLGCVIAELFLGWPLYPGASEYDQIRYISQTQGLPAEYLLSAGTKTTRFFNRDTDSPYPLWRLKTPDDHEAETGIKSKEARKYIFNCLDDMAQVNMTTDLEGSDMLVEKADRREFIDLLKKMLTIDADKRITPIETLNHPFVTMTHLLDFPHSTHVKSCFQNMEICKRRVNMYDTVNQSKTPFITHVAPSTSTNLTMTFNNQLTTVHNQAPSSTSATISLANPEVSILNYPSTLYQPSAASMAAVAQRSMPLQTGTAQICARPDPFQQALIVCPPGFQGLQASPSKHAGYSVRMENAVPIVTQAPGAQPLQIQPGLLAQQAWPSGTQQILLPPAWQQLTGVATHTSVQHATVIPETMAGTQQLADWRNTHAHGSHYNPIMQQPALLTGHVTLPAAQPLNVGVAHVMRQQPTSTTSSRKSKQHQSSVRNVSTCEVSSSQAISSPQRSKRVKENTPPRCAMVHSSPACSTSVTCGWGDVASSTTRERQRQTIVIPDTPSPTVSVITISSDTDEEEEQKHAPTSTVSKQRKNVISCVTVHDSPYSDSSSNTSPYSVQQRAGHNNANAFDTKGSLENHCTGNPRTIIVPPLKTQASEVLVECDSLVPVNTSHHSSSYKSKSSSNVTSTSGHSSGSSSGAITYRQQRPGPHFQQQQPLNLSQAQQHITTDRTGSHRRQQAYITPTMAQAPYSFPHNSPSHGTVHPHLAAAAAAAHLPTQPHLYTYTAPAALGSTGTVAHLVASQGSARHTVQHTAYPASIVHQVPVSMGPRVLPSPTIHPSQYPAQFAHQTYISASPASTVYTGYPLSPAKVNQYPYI
Chain of Serine/threonine-protein kinase pim-2 (Q9P1W9 whole entry, looked up): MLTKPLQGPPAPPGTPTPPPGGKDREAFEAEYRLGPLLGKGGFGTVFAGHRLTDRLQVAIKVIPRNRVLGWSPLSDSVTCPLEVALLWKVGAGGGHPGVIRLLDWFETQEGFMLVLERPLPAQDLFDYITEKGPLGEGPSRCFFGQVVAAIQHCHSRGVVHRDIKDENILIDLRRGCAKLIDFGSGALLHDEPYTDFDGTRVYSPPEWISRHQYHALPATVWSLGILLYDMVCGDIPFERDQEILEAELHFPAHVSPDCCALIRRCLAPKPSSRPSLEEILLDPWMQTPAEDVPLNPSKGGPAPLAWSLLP
Chain of Mitogen-activated protein kinase 7 (Homo sapiens) (Q13164 2-816 limits assumed): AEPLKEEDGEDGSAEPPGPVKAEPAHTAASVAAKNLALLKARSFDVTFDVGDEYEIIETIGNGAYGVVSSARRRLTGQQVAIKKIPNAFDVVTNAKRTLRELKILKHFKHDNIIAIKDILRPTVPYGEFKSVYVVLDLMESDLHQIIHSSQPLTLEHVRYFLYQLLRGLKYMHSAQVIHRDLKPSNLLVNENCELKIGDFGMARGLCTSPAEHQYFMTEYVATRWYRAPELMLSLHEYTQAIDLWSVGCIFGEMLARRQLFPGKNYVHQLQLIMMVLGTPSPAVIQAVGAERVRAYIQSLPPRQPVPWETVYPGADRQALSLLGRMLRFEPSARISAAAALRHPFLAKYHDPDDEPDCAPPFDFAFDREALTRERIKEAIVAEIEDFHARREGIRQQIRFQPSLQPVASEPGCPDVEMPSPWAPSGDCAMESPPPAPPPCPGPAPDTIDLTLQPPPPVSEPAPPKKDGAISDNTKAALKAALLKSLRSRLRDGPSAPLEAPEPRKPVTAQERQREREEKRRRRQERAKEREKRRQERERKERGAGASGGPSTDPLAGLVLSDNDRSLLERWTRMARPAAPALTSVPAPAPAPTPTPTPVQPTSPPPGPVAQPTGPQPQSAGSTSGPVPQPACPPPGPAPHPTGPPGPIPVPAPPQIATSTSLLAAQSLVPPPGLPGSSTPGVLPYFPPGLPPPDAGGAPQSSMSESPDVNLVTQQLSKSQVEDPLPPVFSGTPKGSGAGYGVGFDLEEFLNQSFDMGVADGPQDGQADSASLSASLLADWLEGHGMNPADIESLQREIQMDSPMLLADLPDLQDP
Chain of Mast/stem cell growth factor receptor Kit (Homo sapiens), P10721 [L576P] (P10721 whole entry L576P): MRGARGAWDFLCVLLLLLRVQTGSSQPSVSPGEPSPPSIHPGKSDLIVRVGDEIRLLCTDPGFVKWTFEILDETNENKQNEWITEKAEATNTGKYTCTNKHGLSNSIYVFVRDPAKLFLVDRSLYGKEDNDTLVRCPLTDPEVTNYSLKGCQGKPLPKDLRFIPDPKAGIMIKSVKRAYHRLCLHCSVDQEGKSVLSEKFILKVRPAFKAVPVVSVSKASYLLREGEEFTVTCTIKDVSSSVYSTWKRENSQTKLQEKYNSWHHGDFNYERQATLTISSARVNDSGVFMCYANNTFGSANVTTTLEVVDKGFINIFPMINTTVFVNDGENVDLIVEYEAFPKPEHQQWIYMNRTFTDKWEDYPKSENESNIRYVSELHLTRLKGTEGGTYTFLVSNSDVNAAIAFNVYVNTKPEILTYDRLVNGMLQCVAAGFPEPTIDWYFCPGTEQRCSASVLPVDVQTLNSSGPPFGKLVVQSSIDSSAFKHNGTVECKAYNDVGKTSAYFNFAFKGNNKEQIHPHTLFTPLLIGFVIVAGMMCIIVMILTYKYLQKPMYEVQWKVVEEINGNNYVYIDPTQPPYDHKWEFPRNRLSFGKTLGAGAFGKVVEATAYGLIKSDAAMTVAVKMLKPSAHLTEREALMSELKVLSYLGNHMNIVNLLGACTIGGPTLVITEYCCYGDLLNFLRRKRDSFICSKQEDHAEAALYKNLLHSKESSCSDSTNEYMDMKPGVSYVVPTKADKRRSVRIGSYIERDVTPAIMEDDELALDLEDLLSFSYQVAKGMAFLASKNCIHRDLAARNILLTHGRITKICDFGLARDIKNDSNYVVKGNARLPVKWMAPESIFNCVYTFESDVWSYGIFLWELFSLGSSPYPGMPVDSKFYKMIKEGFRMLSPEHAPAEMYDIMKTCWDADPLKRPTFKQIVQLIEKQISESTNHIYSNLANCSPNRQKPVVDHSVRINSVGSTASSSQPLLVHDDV

**Q.** How did the % of engagement [1] turn out when `C=CC(=O)Nc1ccc(C(=O)Nc2[nH]nc3c2CN(C(=O)N[C@H](CN(C)C)c2ccccc2)C3(C)C)cc1` was run?
**A.** 22.4%

**Q.** `C=CC(=O)Nc1cc(-n2c(=O)ccc3cnc4ccc(-c5ccc(NS(C)(=O)=O)cc5)cc4c32)ccc1C` was tested. Which % of control ([2]; at 1 µM) did it give?
**A.** 100%

**Q.** What about the % of control ([2]; at 10 µM) of the same compound?
**A.** 95%

**Q.** `Cc1cc(F)c(C(=O)Nc2cccc(-c3nncn3C(C)C)n2)cc1-n1cnc(C2CC2)c1` was tested. Which % of control [3] did it give?
**A.** 78%

**Q.** What does the source list for `O=C(NOC[C@H](O)CO)c1ccc(F)c(F)c1Nc1ccc(I)cc1F`?
**A.** % of control [4]: 51%; % of control [5]: 100%

**Q.** How did the % of control [6] turn out when `Cc1cc([C@@H](C)Nc2ccccc2C(=O)O)c2nc(N3CCOCC3)cc(=O)n2c1` [AZD-6482] was run?
**A.** 95%

**Q.** `CC(=O)c1cc(-c2ccccc2OCC2CC2)c2ncccn12` was tested. Which % of control [7] did it give?
**A.** 100%

**Q.** Which % of control [8] does the source give for `COc1cc(Nc2nc(C)cc(-c3cnn4nc(OC)ccc34)n2)cc(C(F)(F)F)c1` here?
**A.** 86%

**Q.** How did the % of control ([9]; at 1 µM) turn out when `C=CC(=O)Nc1cccc(C(=O)Nc2ccc(Nc3cc(-c4[nH]c(SC)nc4C)ccn3)cc2)c1` was run?
**A.** 92%

**Q.** What about the % of control ([9]; at 5 µM) of the same compound?
**A.** 75%

**Q.** And the % of control ([10]; at 1 µM)?
**A.** 100%

**Q.** And the % of control ([10]; at 5 µM)?
**A.** 87%

**Q.** `O[C@H]1CC[C@H](Nc2ncc3nc(Nc4c(F)cc(F)cc4F)n([C@H]4CCOC4)c3n2)CC1` was tested. Which % of control [11] did it give?
**A.** 90%

**Q.** With `CCN(CC)CCCCNc1ncc2cc(-c3cc(OC)cc(OC)c3)c(NC(=O)NC(C)(C)C)nc2n1` as the compound, how does the % of control [12] read?
**A.** 100%

**Q.** `CN(C)C/C=C/C(=O)Nc1ccc(C(=O)N2CCCC(Nc3ncc(Cl)c(-c4c[nH]c5ccccc45)n3)C2)cc1` (stereo unspecified) was tested. Which % of control [13] did it give?
**A.** 67%
